Consider 3 compounds from patent US10308631B2, “Selective anti-cancer compounds” (NATIONAL UNIVERSITY OF SINGAPORE, priority 2015, dated 2019).

For experiment [1], the system named is mitotic marker phospho-histone H3 at serine 10 (pH3 (Ser10)) in transformed BJ cells. Kind of experiment: Immunoblot analysis of mitotic marker pH3 (Ser10), derivatives of Compound 1. Format: cell-based. Conditions: Homo sapiens, band intensities pH3(Ser10)/β-actin vs DMSO control, 24 h. The procedure: (§1) FIG. 4 compares the ability of Compound 1 (a131), and various derivatives thereof (referred to using their code numbers for brevity; the designated chemical compound for each code number is provided in the chemical examples section below), to inhibit autophagy and/or mitosis. BJ transformed cells were treated with 5 μM of various Compounds as shown, for 24 h. Cells were harvested and total lysates were analysed by detecting the mitotic marker phospho-histone H3 at serine 10 (pH3 (Ser10)) and the autophagosome marker LC3. Antibodies raised against β-actin were used as an internal loading control.
(§2) The ability of Compound 1 to inhibit lysosome function was examined using immunoblotting. HeLa cervical cancer cells were cultured in Dulbecco's modified Eagle's medium (DMEM) supplemented with 10% Fetal Bovine Serum (FBS, Thermo Scientific). The HeLa cells were treated with different concentrations of Compound 1 (0.625, 1.25, 2.5, 5 and 10 μM, dimethyl sulfoxide (DMSO, Kanto Kagaku)), chloroquine (CQ) (1.25, 2.5, 10, 50 and 100 μM, DMSO) or DMSO for 6 h. Then, the treated cells were harvested and lysed in 1% triton lysis buffer [25 mM Tris HCl (pH8.0), 150 mM NaCl, 1% triton-X100, 1 mM dithiothreitol (DTT), protease inhibitor mix (Complete Mini, Roche) and phosphatase inhibitor (PhosphoStop, Roche)]. The proteins in total lysates were boiled with sample buffer (60 mM Tris-HCl (pH 6.8), 25% glycerol, 2% SDS, 14.4 mM 2-mercaptoethanol, 0.1% bromophenol blue) and resolved by 14% tris-glycine sodium dodecyl sulfate polyacrylamide gel electrophoresis (SDS-PAGE) and subjected to immunoblot analysis.
(§3) Defects in lysosome function and inhibition of autophagy can be measured by accumulation of LC3-phosphatidylethanolamine conjugated non-soluble form (LC3-II), which are converted from soluble LC3-I. Thus, antibodies raised against LC3 (Cell Signaling, Cat#4108) were used to determine lysosomal function and integrity. Antibodies raised against phosphorylated histone H3 at serine 10 residue (pH3) (Cell signaling, Cat#3377) were used as the marker for mitotic dysfunction and arrest. Antibodies raised against β-actin (Millipore, Cat#MAB1501) were used as an internal loading control. The inhibitory ability of Compound 1 was also quantitatively compared to CQ.
(§4) Derivatives of Compound 1 were tested to see if they had similar dual activity, or presented only one of the activities of Compound 1. The protocol for immunoblot analysis described in Biology Example 1 was applied to the additional indicated compounds.
(§5) Activities of compounds were determined by two independent experiments. First, Compounds were classified according to the intensity of increase in each of the mitotic marker phospho-histone H3 at serine 10 (pH3 (Ser 10)) and the autophagosome marker LC3, respectively, at 1.25 μM, when compared with 1.25 μM Compound 1 (a131).
(§6) Compounds classified “++” on either “mitosis” or “inhibits lysosome” show similar increase in each of the mitotic marker phospho-histone H3 at serine 10 (pH3 (Ser10)) and the autophagosome marker LC3, respectively, at 2.5 μM, when compared with 1.25 μM Compound 1 (a131); and compounds classified “+” on either “mitosis” or “inhibits lysosome” show similar increase in each of the mitotic marker phospho-histone H3 at serine 10 (pH3 (Ser10)) and the autophagosome marker LC3, respectively, at a concentration range of 5-10 μM, when compared with 1.25 μM Compound 1 (a131).
Compounds classified “+/−” on either “mitosis” or “inhibits lysosome” show less increase in each of the mitotic marker phospho-histone H3 at serine 10 (pH3 (Ser10)) and the autophagosome marker LC3, respectively, at a concentration range of 5-10 μM, when compared with 1.25 μM Compound 1 (a131).
Next, the ability of Compound 1 and its derivatives to induce mitotic arrest in transformed BJ cells was quantified as the fold induction of band intensities [pH3(Ser10)/β-actin] in comparison with DMSO control. […]
On the technique in general: Immunoblotting shows a protein as a band on a membrane.

The subject of experiment [2] is autophagosome marker LC3 (LC3 II/LC3 I) in transformed BJ cells. Kind of experiment: Immunoblot analysis of autophagosome marker LC3 (lysosome function), derivatives of Compound 1. The class given is cell-based. The following applies: Homo sapiens, band intensities LC3 II/LC3 I vs DMSO control, 24 h. On the procedure: as §1, §2, §3, §4, §5, §6
Compounds classified “+/−” on either “mitosis” or “inhibits lysosome” show less increase in each of the mitotic marker phospho-histone H3 at serine 10 (pH3 (Ser10)) and the autophagosome marker LC3, respectively, at a concentration range of 5-10 μM, when compared with 1.25 μM Compound 1 (a131). […]

The subject of experiment [3] is pH3 (Ser10) and LC3 in BJ transformed cells. Kind of experiment: Immunoblot classification of compounds by pH3 and LC3 (FIG. 4). Format: cell-based, human. The following applies: 5 μM, 24 h. On the procedure: as §1, §4
In experiment [4] the test system is oncogene-transformed BJ cells. Kind of experiment: PI staining and FACS analysis, sub-G1 cell death. Format: cell-based, human. The following applies: for cell death (population of cells in sub-G1) / cell death: 48 h; for cell death (population of cells in sub-G1): Compound 1 2.5 μM, other Group 1 and Group 2 compounds 10 μM, Compound 3 5 μM (FIG. 5A). On the procedure: FIG. 5A is a histogram showing the ability of Compound 1 (a131) and its derivatives Compound 2 (a156), Compound 16 (b5), Compound 17 (b9), all in Group 1; Compound 29 (a219), Compound 13 (b12), Compound 11 (b15), Compound 12 (b16), Compound 25 (a166), all in Group 2; and Compound 3 (a159) from Group 3, to induce cancer selective cell death. Isogenic non-transformed (normal) and oncogene-transformed BJ cells were treated with each compound for 48 h and cells were stained with propidium iodide (PI) and subjected to FACS analysis. The percentage of cells in sub-G1 phase is indicative of the extent of cell death. […] In contrast, the ability of the compounds in Groups 2 and 3 to induce cancer selective cell death was markedly compromised (or reduced).
The Compounds 25 (a166) and 3 (a159) were selected from Group 2 and Group 3, respectively. Isogenic non-transformed normal and oncogene-transformed BJ cells were treated with or without 0.3 μM or 0.6 μM Compound 3 (a159) alone or together with 1.25 μM Compound 25 (a166) for 48 h. Cells were stained with propidium iodide (PI) and subjected to FACS analysis.
Isogenic non-transformed and oncogene-transformed human fibroblast BJ cell lines were cultured in DMEM supplemented with 10% FBS. The cells were treated with Compound 1 (2.5 μM, DMSO). 48 h after treatment, the cells were fixed with ethanol at −30° C. overnight and stained with 20 μg/mL propidium iodide (PI) and 10 μg/mL RNase A for 30 min. These cells were then subjected to flow cytometry (FACS) analysis using MACSQuant (Miltenyi Biotec) to count the percentage of apoptotic cells in sub-G1 peak.
The above procedure was repeated for Group 1 Compounds 2, 16 and 17, Group 2 Compounds 29, 13, 11, 12 and 25 at a concentration of 10 μM, and Group 3 Compound 3 at a concentration of 5 μM.
Isogenic non-transformed normal and oncogene-transformed BJ cells were cultured as in Biology Example 3. The cells were treated with a combination of Compound 3 (Group 3, at a concentration of 0.3 μM or 0.6 μM), and Compound 25 (Group 2, at a concentration of 1.25 μM) for 48 hours. Controls using DMSO, Compound 3 and Compound 25 alone (at the concentrations mentioned above) were also performed.
A general note: In flow cytometry, cells or beads pass a laser one at a time.

What is called fold induction is the ratio of treated to control signal. As for `N#C/C(=C\c1cccc2cnccc12)c1c[nH]c2ccccc12` [Compound 1, (Z)-2-(1H-indol-3-yl)-3-(isoquinolin-5-yl)acrylonitrile], the figures for the fold induction at 5 µM in experiment [1] and in experiment [2] were 7.3 and 5, respectively. For the same compound, the “Inhibition of lysosome function and/or mitosis (FIG. 4)” value (“Inhibition” for short) in experiment [3] was “exhibit the dual properties of inhibiting both lysosome function and mitosis”. The “population of cells in sub-G1” value in experiment [4] (2.5 and 5 μM, 24 h (FIG. 9A panels g-i)) is recorded as “massive increase in population of oncogene-transformed BJ cells in sub-G1”. The “cell death (population of cells in sub-G1)” value in experiment [4] is reported as “selectively induced cell death in oncogene-transformed BJ cells while sparing normal counterparts”.

Turning to `N#C/C(=C\c1cccc2ncccc12)c1c[nH]c2ccccc12` [Compound 3, (Z)-2-(1H-indol-3-yl)-3-(quinolin-5-yl)acrylonitrile], the fold induction at 5 µM in experiment [1] came out at 10.5; in experiment [2], 0.7. The “Inhibition” value in experiment [3] is “inhibit mitosis only”. Further, the “cell death (population of cells in sub-G1)” value in experiment [4] is recorded as “significantly induced cell death”. For the same compound, the cell death entry in experiment [4] (Compound 3 alone at 0.3 μM) was “negligible effect”; in experiment [4] (Compound 3 alone at 0.6 μM), −15%.

For `CN1CCN(CC(=O)n2cc(/C(C#N)=C/c3cccc4cnccc34)c3ccccc32)CC1` [Compound 16, (Z)-3-(isoquinolin-5-yl)-2-(1-(2-(4-methylpiperazin-1-yl)acetyl)-1H-indol-3-yl)acrylonitrile], the fold induction at 5 µM in experiment [1] is 11.8; in experiment [2] it was 5. Moreover, the “Inhibition” value in experiment [3] is “exhibit the dual properties of inhibiting both lysosome function and mitosis”. Also, the “cell death (population of cells in sub-G1)” value in experiment [4] was “selectively induced cell death in oncogene-transformed BJ cells while sparing normal counterparts”.
